Series [1] in a line: Metabolic stability in pooled mouse liver microsomes. The settings on record: mouse liver microsomes 0.5 mg/mL, 1 uM, 37° C., NADPH. The class given is in vitro ADME. As to the method:
(§1) Metabolic Stability: In vitro metabolic stability was determined in pooled mouse or human liver microsomes (BD Gentest) at a protein concentration of 0.5 mg/mL in reaction buffer (100 mM KH2PO4, pH 7.4 and 12 mM MgCl2). Each drug candidate was added to a final concentration of 1 uM. This mixture was pre-warmed to 37° C. for 10 minutes prior to starting the reaction with the addition of β-Nicotinamide adenine dinucleotide 2′-phosphate reduced (NADPH) to a final concentration of 1 mM. A parallel incubation lacking NADPH served as the control. After incubation for 30 min at 37° C., the reactions were quenched by the addition of acetonitrile containing 0.1% formic acid and internal standard, vortex mixed for 2 minutes and centrifuged at 4000 rpm for 10 minutes to pellet the precipitated protein. The resulting supernatant containing the drug candidate and its potential metabolites was diluted 5-fold with water containing 0.1% formic acid and submitted to LC-MS/MS analysis. […]
(§2) LC-MS/MS Analysis: An aliquot from each incubation was analyzed by LC-MS/MS with SRM detection in the positive ionization mode using an ABSciex API 5500 QTrap Mass Spectrometer interfaced via the ABSciex Turbo V IonSpray source (ESI) to an Eksigent ExpressHT LC system. […] A fast gradient, from 15 to 85% organic in 2.5 minutes, with run time of 5.0 minutes, and flow rate of 50 ul/min was utilized. Peak areas were integrated using MultiQuant v2.0 software from ABSciex.

Series [2] in a line: Stability in Simulated Gastric Fluid (SGF). The class given is in vitro ADME. The settings on record: 37° C., 0.01 mg/mL. How it is done:
(§3) Stability in Simulated Gastric Fluid (SGF) and Simulated Intestinal Fluid (SIF). Procedure from Baudy et. al. (J. Med. Chem. 2009, 52, 771-778) used. The physiological stability of prodrugs was determined by examining the stability of the compound in SGF, and SIF at 37° C. The compounds were prepared in a 9:1 mixture of the appropriate test component (SGF, SIF) and acetonitrile to a final concentration of 0.01 mg/mL. The samples were thoroughly mixed and maintained at 37° C. Each sample was injected consecutively onto an Agilent 1100 system (Luna C18, 3 μm, 50 mm×3 mm; 1 mL/min; mobile phase of 0.1% trifluoroacetic acid in water/0.1% trifluoroacetic acid in acetonitrile) after a 3 h period. The percent remaining of prodrug was calculated by comparing the area of prodrug compound versus riluzole generated. The identities of the parent compounds and conversion products were confirmed by LC/MS.

Series [3] is described as follows: Metabolic stability in pooled human liver microsomes. Format: in vitro ADME. The settings on record: human liver microsomes 0.5 mg/mL, 1 uM, 37° C., NADPH. As to the method:
as §1, §2

Series [4] is described as follows: Plasma stability in fresh human plasma. To be noted: 1 uM, 37° C. Format: in vitro ADME. As to the method: (§4) Plasma Stability: Assessment of plasma stability was carried out by individual incubations of drug candidates in fresh mouse or human control plasma at a concentration of 1 uM for 1 hour at 37° C. After which, the samples were de-proteinized by addition of 2 volumes of acetonitrile containing 0.1% formic acid and internal standard, vortex mixed for 2 minutes and centrifuged at 4000 rpm for 10 minutes to pellet precipitated protein. The resulting supernatant containing the drug candidates was diluted 5-fold with water containing 0.1% formic acid and submitted to LC-MS/MS analysis. All determinations were done in triplicate. […]
as §2

Series [5] is described as follows: Plasma stability in fresh mouse plasma. The settings on record: 1 uM, 37° C. The class given is in vitro ADME. How it is done: as §4, §2
Series [6] can be described thus: Stability in Simulated Intestinal Fluid (SIF). Format: in vitro ADME. To be noted: 37° C., 0.01 mg/mL. As to the method:
as §3

In series [7] the test system is Stage III and IV melanoma. To be noted: 14 days of treatment; cited from earlier work.

The structures appear in SMILES notation. “Also recorded” adds a separate entry of the source.

Consider `NCCCCC(=O)Nc1nc2ccc(OC(F)(F)F)cc2s1` [Cpd 26, 5-Amino-pentanoic acid (6-trifluoromethoxy-benzothiazol-2-yl)-amide], for which the “Metabolic Stability mouse (30 minutes): percent of prodrug metabolized to riluzole” value in series [1] came to 66%. Also, in series [2], the “SGF (3 hours): percent of prodrug metabolized to riluzole” value (“SGF (3 hours): percent” below) was 0%. Also, the “Metabolic Stability human (30 minutes): percent of prodrug metabolized to riluzole” value in series [3] is reported as 19%. In addition, the “Plasma Stability Human (1 hour): percent of prodrug metabolized to riluzole” value (“Plasma Stability Human (1 hour): percent” below) in series [4] was 5%. The “Plasma Stability mouse (1 hour): percent of prodrug metabolized to riluzole” value (from here on “Plasma Stability mouse (1 hour): percent”) in series [5] is listed as 0%. Further, in series [6], the “SIF (3 hours): percent of prodrug metabolized to riluzole” value (shortened to “SIF (3 hours): percent”) was 0%.
`CCCCOC(=O)Nc1nc2ccc(OC(F)(F)F)cc2s1` [Cpd 15, (6-Trifluoromethoxy-benzothiazol-2-yl)-carbamic acid butyl ester]: the “Metabolic Stability mouse (30 minutes): percent of prodrug metabolized to riluzole” value in series [1] is 53%. Moreover, the “SGF (3 hours): percent” value in series [2] is given as 0%. Also, in series [3], the “Metabolic Stability human (30 minutes): percent of prodrug metabolized to riluzole” value is 13%. The “Plasma Stability Human (1 hour): percent” value in series [4] worked out at 0%. The “Plasma Stability mouse (1 hour): percent” value in series [5] is recorded as 9%. For the same molecule, in series [6], the “SIF (3 hours): percent” value is 0%.
As for `CC(C)(C)OC(=O)CCC(=O)Nc1nc2ccc(OC(F)(F)F)cc2s1` [Cpd 22, N-(6-Trifluoromethoxy-benzothiazol-2-yl)-succinamic acid tert-butyl ester], the “Metabolic Stability mouse (30 minutes): percent of prodrug metabolized to riluzole” value in series [1] was determined as 0%. Besides, in series [2], the “SGF (3 hours): percent” value was 0%. In series [3], the “Metabolic Stability human (30 minutes): percent of prodrug metabolized to riluzole” value was determined as 21%. For the same molecule, the “Plasma Stability Human (1 hour): percent” value in series [4] worked out at 0%. Also, in series [5], the “Plasma Stability mouse (1 hour): percent” value is given as 0%. In addition, the “SIF (3 hours): percent” value in series [6] is reported as 0%.
With `O=C(Cc1ccccc1[N+](=O)[O-])Nc1nc2ccc(OC(F)(F)F)cc2s1` [Cpd 27, 2-(2-Nitro-phenyl)-N-(6-trifluoromethoxy-benzothiazol-2-yl)-acetamide], the “Metabolic Stability mouse (30 minutes): percent of prodrug metabolized to riluzole” value in series [1] was determined as 59%. The “SGF (3 hours): percent” value in series [2] is recorded as 0%. The “Metabolic Stability human (30 minutes): percent of prodrug metabolized to riluzole” value in series [3] was 22%. Besides, in series [4], the “Plasma Stability Human (1 hour): percent” value is given as 13%. In series [5], the “Plasma Stability mouse (1 hour): percent” value stood at 0%. For the same molecule, the “SIF (3 hours): percent” value in series [6] is listed as 0%.
Turning to `Nc1nc2ccc(OC(F)(F)F)cc2s1` [riluzole, 6-(trifluoromethoxy)-1,3-benzothiazol-2-amine], in series [7], the “patients with clinical or radiologic evidence of tumor response” value is listed as “four of twelve; also recorded: four of 12”.
Take `COC(=O)Nc1nc2ccc(OC(F)(F)F)cc2s1` [Cpd 12, (6-Trifluoromethoxy-benzothiazol-2-yl)-carbamic acid methyl ester]: the “Metabolic Stability mouse (30 minutes): percent of prodrug metabolized to riluzole” value in series [1] came out at 10%. In addition, the “SGF (3 hours): percent” value in series [2] is 0%. Moreover, the “Metabolic Stability human (30 minutes): percent of prodrug metabolized to riluzole” value in series [3] stood at 0%. Moreover, the “Plasma Stability Human (1 hour): percent” value in series [4] stood at 15%. For the same molecule, the “Plasma Stability mouse (1 hour): percent” value in series [5] was found to be 0%. Also, in series [6], the “SIF (3 hours): percent” value is given as 0%.
For `C[C@H](N)C(=O)Nc1nc2ccc(OC(F)(F)F)cc2s1` [Cpd 7, (S)-2-Amino-N-(6-trifluoromethoxy-benzothiazol-2-yl)-propionamide], the “Metabolic Stability mouse (30 minutes): percent of prodrug metabolized to riluzole” value in series [1] is 1%. Besides, the “SGF (3 hours): percent” value in series [2] is recorded as 0%. In addition, the “Metabolic Stability human (30 minutes): percent of prodrug metabolized to riluzole” value in series [3] is on record as 0%. In addition, in series [4], the “Plasma Stability Human (1 hour): percent” value stood at 10%. The “Plasma Stability mouse (1 hour): percent” value in series [5] turned out to be 28%. Moreover, the “SIF (3 hours): percent” value in series [6] is given as 50%.
